How the values were obtained:
[1] = Safety after repeated oral administration over four weeks (Example 3); format: in vivo, cats
Protocol: 5-5. 1 kg were used in this study. The animals were allocated to 3 groups, 4 animals per group. […] The bottles with the test/control article looked identical with the exception of the animal no. in order to achieve blinding.
Blood samples for haematology and clinical chemistry were collected from the animals on days-1 (i.e. prior to the first treatment) and again on days 3, 7, 14, 28. Body weights were measured weekly and electrocardiography recording were made on days −1, 14, 21 and 28. A detailed physical examination including determination of rectal temperature and respiratory rate was carried out on days -1, 7, 14, 22 and 28. Systolic blood pressure (once daily) and heart rate (twice daily) were determined five days per week beginning prior to treatment until necropsy. The palatability of the administered article was assessed at various time points throughout treatment using a scoring system. On day 28 of the study, all animals were subjected to necropsy and stomach and kidneys were examined histopathologically. Relevant parameters were analysed using appropriate statistical procedures.

[2] = test system: cats with systemic hypertension; experiment: Six-month extended-use study in cats with systemic hypertension (Example 5); format: in vivo; conditions: for Group mSBP, Mean: baseline 176
Protocol: The primary variables for assessment in this extensive use study were adverse events and change from baseline in retinal photographs. […] No placebo group was used in this study. […] The maintenance dose was down-titrated if the mSBP was below the target range of 120-160 mmHg at any visit. In those cases, the dose was reduced to 1 mg/kg and further reduced to 0.5 mg/kg SID if mSBP remained below the target range. […] All parameters were evaluated by the Investigator for clinical significance. The parameters were then compared to baseline, and changes were summarized by treatment group as well as by subpopulation, if appropriate.

[3] = test system: cats with moderate to severe systemic hypertension; experiment: European study of efficacy and safety in cats with systemic hypertension (Example 6); format: in vivo
Protocol: A European study was conducted to investigate the efficacy and safety of telmisartan oral solution for the treatment of systemic hypertension in cats. The first part or phase of the study (Day 1 to Day 28) occurred over a 28-day placebo-controlled, double-blinded treatment period (efficacy phase of the study). […] The target population for this study was domestic client-owned cats with moderate to severe systemic hypertension (cats having a mSBP of at least about 160 mmHg). […] A schematic overview of the study and the two phases of treatment is depicted in FIG. 3. There was a similar pre-treatment mSBP observed for both treatment groups (about 177-179 mmHg). Cats diagnosed with moderate to severe systemic hypertension in compliance with the “ACVIM consensus statement: Guidelines for the Identification, Evaluation, and Management of Systemic Hypertension in Dogs and Cats” (Brown et al. Guidelines for the identification, evaluation, and management of systemic hypertension in dogs and cats. ACVIM Consensus Statement. J Vet Intern Med 2007; 21: 542-558) at two separate Screening Visits within 14 days of the start of treatment were eligible for the study. The etiology of the hypertension was classified as due to chronic kidney disease (CKD), due to hyperthyroidism, due to both CKD and hyperthyroidism or as idiopathic hypertension. Cats were not allowed any substances which are known to affect blood pressure from 14 days prior to the start of treatment. […] A 5 mL dosing syringe (demarcated in 0.25 mL increments) was used for the first phase and a 2 mL dosing syringe (demarcated in 0.1 mL increments, to achieve down titrations as necessary) to perform dosing either directly into the mouth of the cat or with a very small amount of food. For the first (efficacy) phase of the study, all recruited cats were examined on two visits at Day 14 and Day 28. Examinations included measurement of mSBP, a complete physical examination, fundoscopic examination, an assessment of quality of life, and abbreviated clinical pathology (hematology and biochemistry). […] These cats were further examined, as above, for visits at Days 56, 84 and 120. During the second (extended) phase of the study, it was possible to decrease or down titrate the dose for certain cats as described herein.

CCCc1nc2c(C)cc(-c3nc4ccccc4n3C)cc2n1Cc1ccc(-c2ccccc2C(=O)O)cc1 [telmisartan, 4′-[2-n-propyl-4-methyl-6-(1-methylbenzimidazol-2-yl)-benzimidazol-1-ylmethyl]-biphenyl-2-carboxylic acid]
physical and ECG examinations ([1]; all time points): did not reveal treatment-related findings | histopathology of stomach and kidneys ([1]; day 28): no histopathological findings considered to be associated with the treatment | necropsy findings ([1]; day 28): No animal showed any specific finding | body weights, rectal temperature, respiratory and heart rates ([1]; during the course of the study): No significant differences | clinical findings ([1]; entire study period, 1 and 3 mg/kg once daily): No clinical findings clearly attributable to the treatment | haematological and clinical chemistry parameters including differential leukocyte count ([1]; treated groups vs concurrent controls): No treatment-related differences | rescue cases (removed due to mSBP >180 mmHg), share of end of study outcomes ([2]; 8/107 cats): 7.5% | SAEs determined to be possibly attributable to telmisartan ([2]; 11 SAEs): 10.3% | cats with Serious AEs (SAEs) ([2]; 24 cats of 107, six-month study): 22.4% | cats with Non-serious AEs (NSAEs) ([2]; 91 cats of 107, six-month study): 85.0% | cases with SBP maintained within the target range (120-180 mmHg) ([2]; 97/107 cats): 90.7% | cats scored as "better" in the IRIS blood pressure sub-staging ([2]; CKD and CKD and hyperthyroid subpopulations): 83.0% to 98.1 | Mean SBP of Cat 329-454 ([2]; Visit 2 (Week 2), after 3.0 (1.5 BID) mg/kg daily): 108.3 mmHg | Mean SBP of Cat 329-454 ([2]; Visit 3 (Week 4), after 1.0 mg/kg SID): 116.0 mmHg | Mean SBP of Cat 329-454 ([2]; Visit 4 (Week 8), after 0.5 mg/kg SID): 157.7 mmHg | Mean SBP of Cat 329-454 ([2]; Visit 5 (Week 14), after 2.0 mg/kg SID): 100.0 mmHg | Mean SBP of Cat 329-454 ([2]; Visit 6 (Week 20), after 1.0 mg/kg SID): 125.3 mmHg | Mean SBP of Cat 329-454 ([2]; Visit 7 (Week 26), after 2.0 mg/kg SID): 126.0 mmHg | Group mSBP, Median ([2]; Week 4 (n = 107)): 149 mmHg | Maximum mSBP ([2]; Week 4 (n = 107)): 179 mmHg | Maximum mSBP Change from baseline ([2]; Week 4 (n = 107)): 14 ΔmmHg | Mean mSBP Change from baseline ([2]; Week 4 (n = 107)): −29 ΔmmHg | Median mSBP Change from baseline ([2]; Week 4 (n = 107)): −26 ΔmmHg | Minimum mSBP ([2]; Week 4 (n = 107)): 95 mmHg | Minimum mSBP Change from baseline ([2]; Week 4 (n = 107)): −76 ΔmmHg | Group mSBP, Mean ([2]; Week 4 (n = 107)): 148 mmHg | Group mSBP, Median ([2]; Week 8 (n = 102)): 148 mmHg | Maximum mSBP Change from baseline ([2]; Week 8 (n = 102)): 7 ΔmmHg | Mean mSBP Change from baseline ([2]; Week 8 (n = 102)): −28 ΔmmHg | Median mSBP Change from baseline ([2]; Week 8 (n = 102)): −28 ΔmmHg | Minimum mSBP ([2]; Week 8 (n = 102)): 105 mmHg | Minimum mSBP Change from baseline ([2]; Week 8 (n = 102)): −79 ΔmmHg | Group mSBP, Mean ([2]; Week 8 (n = 102)): 148 mmHg | Group mSBP, Median ([2]; Week 14 (n = 92)): 144 mmHg | Maximum mSBP Change from baseline ([2]; Week 14 (n = 92)): 25 ΔmmHg | Mean mSBP Change from baseline ([2]; Week 14 (n = 92)): −33 ΔmmHg | Median mSBP Change from baseline ([2]; Week 14 (n = 92)): −32 ΔmmHg | Minimum mSBP ([2]; Week 14 (n = 92)): 77 mmHg | Minimum mSBP Change from baseline ([2]; Week 14 (n = 92)): −115 ΔmmHg | Group mSBP, Mean ([2]; Week 14 (n = 92)): 142 mmHg | Group mSBP, Median ([2]; Week 20 (n = 81)): 148 mmHg | Maximum mSBP Change from baseline ([2]; Week 20 (n = 81)): 16 ΔmmHg | Mean mSBP Change from baseline ([2]; Week 20 (n = 81)): −30 ΔmmHg | Median mSBP Change from baseline ([2]; Week 20 (n = 81)): −28 ΔmmHg | Minimum mSBP ([2]; Week 20 (n = 81)): 89 mmHg | Minimum mSBP Change from baseline ([2]; Week 20 (n = 81)): −91 ΔmmHg | Group mSBP, Mean ([2]; Week 20 (n = 81)): 145 mmHg | Group mSBP, Median ([2]; Week 26 (n = 73)): 147 mmHg | Maximum mSBP Change from baseline ([2]; Week 26 (n = 73)): 30 ΔmmHg | Mean mSBP Change from baseline ([2]; Week 26 (n = 73)): −25 ΔmmHg | Median mSBP Change from baseline ([2]; Week 26 (n = 73)): −28 ΔmmHg | Minimum mSBP ([2]; Week 26 (n = 73)): 104 mmHg | Minimum mSBP Change from baseline ([2]; Week 26 (n = 73)): −69 ΔmmHg | Group mSBP, Mean ([2]; Week 26 (n = 73)): 150 mmHg | cats with retinal photographs improved compared to baseline ([2]; at all subsequent visits): 6.9% to 7.4 | mean change in SBP from baseline (reduction) ([2]; each visit, Examples 4 and 5, FIG. 2): greater than 20 mmHg | SAE anemia and dehydration ([2]; six-month study): 6.5% | SAE anorexia, vomiting ([2]; six-month study): 5.6% | SAE weight loss ([2]; six-month study): 8.4% | cases rescued due to hypotension ([2]; two cats): 1.9% | mSBP change on Day 28 ([3]; 2.0 mg/kg once daily oral, n = 165): −24.629 ΔmmHg | mSBP change on Day 14 ([3]; 2.0 mg/kg once daily oral, n = 174): −19.219 ΔmmHg | Mean SABP reduction compared to baseline at respective visit ([3]; SABP at baseline between 160-179 mmHg (171.9), Day 14, n = 98): −16.7 ΔmmHg | Mean SABP reduction compared to baseline at respective visit ([3]; SABP at baseline between 160-179 mmHg, Day 28, n = 94): −22.9 ΔmmHg | Mean SABP reduction compared to baseline at respective visit ([3]; SABP at baseline between 160-179 mmHg, Day 56, n = 87): −24.7 ΔmmHg | Mean SABP reduction compared to baseline at respective visit ([3]; SABP at baseline between 160-179 mmHg, Day 84, n = 85): −23.2 ΔmmHg | Mean SABP reduction compared to baseline at respective visit ([3]; SABP at baseline between 160-179 mmHg, Day 120, n = 81): −23.5 ΔmmHg | Mean SABP reduction compared to baseline at respective visit ([3]; SABP at baseline between 180-200 mmHg (188.4), Day 14, n = 76): −22.3 ΔmmHg | Mean SABP reduction compared to baseline at respective visit ([3]; SABP at baseline between 180-200 mmHg, Day 28, n = 71): −26.6 ΔmmHg | Mean SABP reduction compared to baseline at respective visit ([3]; SABP at baseline between 180-200 mmHg, Day 56, n = 65): −29.6 ΔmmHg | Mean SABP reduction compared to baseline at respective visit ([3]; SABP at baseline between 180-200 mmHg, Day 84, n = 63): −30.7 ΔmmHg | Mean SABP reduction compared to baseline at respective visit ([3]; SABP at baseline between 180-200 mmHg, Day 120, n = 63): −32.9 ΔmmHg | % of cats with Systolic Blood Pressure < 160 mmHg ([3]; Visit Day 14): 46.6% | N of cats with Systolic Blood Pressure < 160 mmHg ([3]; Visit Day 14): 81 | % of cats with Systolic Blood Pressure < 160 mmHg ([3]; Visit Day 56): 70.9% | N of cats with Systolic Blood Pressure < 160 mmHg ([3]; Visit Day 56): 105 | % of cats with Systolic Blood Pressure < 160 mmHg ([3]; Visit Day 84): 67.8% | N of cats with Systolic Blood Pressure < 160 mmHg ([3]; Visit Day 84): 97 | % of cats with Systolic Blood Pressure < 160 mmHg ([3]; Visit Day 120): 73.1% | N of cats with Systolic Blood Pressure < 160 mmHg ([3]; Visit Day 120): 98 | % of cats with Systolic Blood Pressure < 160 mmHg ([3]; Visit day 28): 62.0% | N of cats with Systolic Blood Pressure < 160 mmHg ([3]; Visit day 28): 101 | cats with an increased appetite ([3]; between day −1 and 28): 11% | reduction in mSBP (mean change in SBP from baseline) ([3]; each visit day, whole study duration of 120 days): greater than 20 mmHg | cats with adverse events ([3]; efficacy phase, 115 adverse events coded for 58 cats): 29.9% | cats in which it was possible to down-titrate the dose to <2 mg/kg ([3]; extended use phase): 21.7% | Mean Systolic Blood Pressure change on Day 120 compared to baseline SBP ([3]; extended use phase, n = 144 cats): −27.62 ΔmmHg | Mean Systolic Blood Pressure change on Day 84 compared to baseline SBP ([3]; extended use phase, n = 148 cats): −26.50 ΔmmHg | Mean Systolic Blood Pressure change on Day 56 compared to baseline SBP ([3]; extended use phase, n = 152 cats): −26.94 ΔmmHg | changes in a physical or clinical pathology parameter ([3]; following 120 days of treatment): no clinically relevant changes | mean body weight, mean heart rate, respiratory rate, and rectal temperature ([3]; following 120 days treatment): no clinically significant change | cats with at least one adverse event ([3]; second (extended use) phase, 62 cats): 32.0%
